Experiments:
[1] = Comparative stability study between the tri-hydrate and anhydrous forms of docetaxel (bulk substance); assay type: physicochemical; design: Assay (H2O): unit not given here; conditions: for A % Docetaxel / A % Impurities (unknown) / Assay (H2O): bulk substance; for A % Docetaxel: amber glass vials under N2 over P2O5, −5 to 0° C.; for A % Docetaxel / A % Impurities (unknown): HPLC; for A % Impurities (unknown) / Assay (H2O): −5 to 0° C.; for Assay (H2O): Karl Fischer titration
Protocol: Comparative stability study between the tri-hydrate and anhydrous forms of (2R,3S)4-acetoxy-2-α-benzoyloxy-5β-20-epoxy-1,7-β-10-β-tri-hydroxy-9-oxo-tax-11-en-13α-il 3-tert-butoxycarbonylamino-2-hydroxy-3-phenylpropionate
Analysis was realized by HPLC using a Waters Spherisorb® C-18, 250×5 mm column, mobile phase MeOH:H2O 85:15, flow 1.5 mL/min. Related impurities reported as A % discounting the peak due to the dead volume. Samples were stored in amber glass vials under N2 in a dessicator over P2O5 maintained between −5 and 0° C.

[2] = Comparative stability study of solutions of docetaxel tri-hydrate and anhydrous forms in polysorbate 80 with and without acid; assay type: physicochemical; conditions: solutions in polyethoxylated sorbitol previously or posteriorly acidified
[3] = statement of patent application PI 9508789-3; cited from earlier work
[4] = stored under adequate and controlled conditions

Row | Compound | A % Docetaxel ([1]; 0 months) | A % Impurities (unknown) ([1]; 0 months) | Assay (H2O) ([1]; 0 months) | A % Docetaxel ([1]; 3 months) | A % Impurities (unknown) ([1]; 3 months) | Assay (H2O) ([1]; 3 months) | A % Docetaxel ([1]; 6 months) | A % Impurities (unknown) ([1]; 6 months) | Assay (H2O) ([1]; 6 months) | A % Docetaxel ([1]; 12 months) | A % Impurities (unknown) ([1]; 12 months) | Assay (H2O) ([1]; 12 months) | A % Docetaxel ([1]; 18 months) | A % Impurities (unknown) ([1]; 18 months) | Assay (H2O) ([1]; 18 months) | A % Docetaxel ([1]; 24 months) | A % Impurities (unknown) ([1]; 24 months) | Assay (H2O) ([1]; 24 months) | further results
1 | CC(=O)O[C@@]12CO[C@@H]1C[C@H](O)[C@@]1(C)C(=O)[C@H](O)C3=C(C)[C@@H](OC(=O)[C@H](O)[C@@H](NC(=O)OC(C)(C)C)c4ccccc4)C[C@@](O)([C@@H](OC(=O)c4ccccc4)[C@H]21)C3(C)C [Docetaxel (anhydrous), (2R,3S)4-acetoxy-2-α-benzoyloxy-5β-20-epoxy-1,7-β-10-β-tri-hydroxy-9-oxo-tax-11-en-13α-il 3-tert-butoxycarbonylamino-2-hydroxy-3-phenylpropionate] | 99.28 A % | 0.72 A % | 0.10 | 99.21 A % | 0.79 A % | 0.11 | 99.26 A % | 0.73 A % | 0.12 | 98.93 A % | 1.07 A % | 0.09 | 98.65 A % | 1.35 A % | 0.12 | 98.29 A % | 1.71 A % | 0.13 | re-hydration on storage [1, 4]: does not re-hydrate to a significant degree; stability of anhydrous product compared with tri-hydrate [1, 4]: stability equal or superior to the tri-hydrate; stability conferred to the pharmaceutical finished dosage form [2]: equal or superior stability
2 | CC(=O)O[C@@]12CO[C@@H]1C[C@H](O)[C@@]1(C)C(=O)[C@H](O)C3=C(C)[C@@H](OC(=O)[C@H](O)[C@@H](NC(=O)OC(C)(C)C)c4ccccc4)C[C@@](O)([C@@H](OC(=O)c4ccccc4)[C@H]21)C3(C)C [Docetaxel (tri-hydrate), tri-hydrate of (2R,3S)4-acetoxy-2-α-benzoyloxy-5β-20-epoxy-1,7-β-10-β-tri-hydroxy-9-oxo-tax-11-en-13α-il 3-tert-butoxycarbonylamino-2-hydroxy-3-phenylpropionate] | 99.51 A % | 0.49 A % | 6.32 | 99.23 A % | 0.77 A % | 6.35 | 99.30 A % | 0.70 A % | 6.21 | 98.91 A % | 1.09 A % | 6.42 | 98.72 A % | 1.28 A % | 6.31 | 98.21 A % | 1.79 A % | 6.29 | stability of tri-hydrate relative to anhydrous product [3]: clearly superior stability relative to the anhydrous product
